Legend:
Format in all cases: biochemical
[1] = molecular target: human endothelial constitutive NOS (eNOS) (Homo sapiens, UniProt P29474); test: eNOS (Human) enzyme assay, radiometric conversion of [3H]L-arginine to [3H]L-citrulline; settings: recombinant human enzyme, 37° C., 45 min; read-out: Human eNOS
Experimental: (§1) Recombinant human inducible NOS (iNOS), human endothelial constitutive NOS (eNOS) or human neuronal constitutive NOS(nNOS) were produced in Baculovirus-infected Sf9 cells (ALEXIS). In a radiometric method, NO synthase activity was determined by measuring the conversion of [^3H]L-arginine to [^3H]L-citrulline. To measure iNOS, 10 μL of enzyme was added to 100 μL of 100 mM HEPES, pH=7,4, containing 1 mM CaCl2, 1 mM EDTA, 1 mM dithiotheitol, 1 μM FMN, 1 μM FAD, 10 μM tetrahydrobiopterin, 120 μM NADPH, and 100 nM CaM. To measure eNOS or nNOS, 10 μL of enzyme was added to 100 μL of 40 mM HEPES, pH=7.4, containing 2.4 mM CaCl2, 1 mM MgCl2, 1 mg/mL BSA, 1 mM EDTA, 1 mM dithiothreitol, 1 μM FMN, 1 μM FAD, 10 μM tetrahydrobiopterin, 1 mM NADPH, and 1.2 μM CaM.
(§2) To measure enzyme inhibition, a 15 μL solution of a test substance was added to the enzyme assay solution, followed by a pre-incubation time of 15 min at RT. The reaction was initiated by addition of 20 μL L-arginine containing 0.25 μCi of [^3H]arginine/mL and 24 μM L-arginine. The total volume of the reaction mixture was 150 μL in every well. The reactions were carried out at 37° C. for 45 min. The reaction was stopped by adding 20 μL of ice-cold buffer containing 100 mM HEPES, 3 mM EGTA, 3 mM EDTA, pH=5.5. [^3H]L-citrulline was separated by DOWEX (ion-exchange resin DOWEX 50 W X 8-400, SIGMA) and the DOWEX was removed by spinning at 12,000 g for 10 min in the centrifuge. An 70 μL aliquot of the supernatant was added to 100 μL of scintillation fluid and the samples were counted in a liquid scintillation counter (1450 Microbeta Jet, Wallac). […] All assays were performed at least in duplicate.

[2] = molecular target: human inducible NOS (iNOS) (Homo sapiens, UniProt P35228); test: iNOS (Human) enzyme assay, radiometric conversion of [3H]L-arginine to [3H]L-citrulline; settings: recombinant human enzyme, 37° C., 45 min
Experimental: as §1, §2

[3] = molecular target: human neuronal constitutive NOS (nNOS) (Homo sapiens, UniProt P29475); test: nNOS (Human) enzyme assay, radiometric conversion of [3H]L-arginine to [3H]L-citrulline; settings: for Ratio e/n: human eNOS / human nNOS; for IC50: recombinant human enzyme, 37° C., 45 min, read-out: Human nNOS
human neuronal constitutive NOS (nNOS), sequence (P29475 whole entry): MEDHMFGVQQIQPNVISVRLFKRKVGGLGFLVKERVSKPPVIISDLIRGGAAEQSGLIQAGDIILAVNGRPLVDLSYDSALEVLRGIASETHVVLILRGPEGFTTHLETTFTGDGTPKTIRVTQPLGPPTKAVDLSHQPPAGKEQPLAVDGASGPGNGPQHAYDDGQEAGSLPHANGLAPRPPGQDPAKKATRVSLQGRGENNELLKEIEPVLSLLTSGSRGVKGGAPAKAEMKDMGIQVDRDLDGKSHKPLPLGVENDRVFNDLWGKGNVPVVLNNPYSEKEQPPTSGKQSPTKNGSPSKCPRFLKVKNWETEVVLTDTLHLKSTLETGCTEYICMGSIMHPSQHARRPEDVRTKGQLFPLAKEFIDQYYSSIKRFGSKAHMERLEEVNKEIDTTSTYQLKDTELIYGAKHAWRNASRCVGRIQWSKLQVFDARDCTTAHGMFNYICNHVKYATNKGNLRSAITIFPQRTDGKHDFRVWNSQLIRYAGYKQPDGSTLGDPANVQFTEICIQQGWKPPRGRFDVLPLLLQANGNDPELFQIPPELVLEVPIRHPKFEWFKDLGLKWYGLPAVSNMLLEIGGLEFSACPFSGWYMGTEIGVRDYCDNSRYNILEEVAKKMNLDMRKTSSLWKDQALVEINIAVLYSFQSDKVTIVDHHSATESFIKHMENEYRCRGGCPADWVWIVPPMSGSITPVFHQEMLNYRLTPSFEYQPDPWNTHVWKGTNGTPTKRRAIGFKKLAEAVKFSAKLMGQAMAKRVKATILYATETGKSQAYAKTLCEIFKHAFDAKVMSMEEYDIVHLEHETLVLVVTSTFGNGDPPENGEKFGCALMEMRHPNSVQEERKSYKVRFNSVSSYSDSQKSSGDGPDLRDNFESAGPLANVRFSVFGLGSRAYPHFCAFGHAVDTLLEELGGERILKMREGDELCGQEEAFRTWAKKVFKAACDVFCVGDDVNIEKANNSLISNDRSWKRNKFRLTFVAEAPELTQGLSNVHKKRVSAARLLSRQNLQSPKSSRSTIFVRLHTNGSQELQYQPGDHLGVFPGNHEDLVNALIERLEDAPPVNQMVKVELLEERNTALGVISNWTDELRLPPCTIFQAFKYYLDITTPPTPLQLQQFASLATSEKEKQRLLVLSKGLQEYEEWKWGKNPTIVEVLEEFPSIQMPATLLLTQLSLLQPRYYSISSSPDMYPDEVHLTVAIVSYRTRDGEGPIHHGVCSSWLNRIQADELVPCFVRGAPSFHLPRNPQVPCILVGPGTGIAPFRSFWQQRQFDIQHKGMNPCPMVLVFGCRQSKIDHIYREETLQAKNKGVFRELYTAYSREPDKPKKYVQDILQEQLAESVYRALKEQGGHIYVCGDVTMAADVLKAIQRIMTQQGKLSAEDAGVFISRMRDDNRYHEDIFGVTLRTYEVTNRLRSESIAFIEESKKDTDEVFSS

Row | IC50 [1] | Ratio e/n [3] | IC50 [3] | Compound | IC50 [2]
1 | 5.54 µM | 27.02 | 0.2 µM | CCCN[C@H]1CC[C@@H](c2c[nH]c3cc(NC(=N)c4cccs4)ccc32)CC1 [Compound 137, N-(3-((1s,4s)-4-(propylamino)cyclohexyl)-1H-indol-6-yl)thiophene-2-carboximidamide] | 8.26 µM
2 | 7.09 µM | 35.45 | 0.2 µM | CN1CCC(c2c[nH]c3cc(NC(=N)c4cccs4)ccc23)C1 (centres unmarked) [Compound 117, N-(3-(1-methylpyrrolidin-3-yl)-1H-indol-6-yl) thiophene-2-carboximidamide] | –
3 | 91 µM | 1.24 | 73 µM | CN1CCCC1CCn1ccc2cc(CNC(=N)c3cccs3)ccc21 (centres unmarked) [Compound 37, N-((1-(2-(1-methylpyrrolidin-2-yl)ethyl)-1H-indol-5-yl)methyl)thiophene-2-carboximidamide] | –
4 | 1.49 µM | 7.41 | 0.2 µM | Cc1cc2cc(NC(=N)c3cccs3)ccc2n1CCN1CCCC1 [Compound 28, N-(2-methyl-1-(2-(pyrrolidin-1-yl)ethyl)-1H-indol-5-yl)thiophene-2-carboximidamide] | –
5 | 9.72 µM | 9.34 | 1.04 µM | N=C(Nc1ccc2c(ccn2C2CCOCC2)c1)c1cccs1 [Compound 90, N-(1-(tetrahydro-2H-pyran-4-yl)-1H-indol-5-yl)thiophene-2-carboximidamide] | –
6 | 6.99 µM | 23.6 | 0.29 µM | CC(C)NC1CCC(c2c[nH]c3cc(NC(=N)c4cccs4)ccc23)CC1 (centres unmarked) [Compound 142] | –
7 | 9.47 µM | 28.96 | 0.32 µM | CNC1CCC(c2c[nH]c3cc(NC(=N)c4cccs4)ccc23)CC1 (centres unmarked) [Compound 123, N-(3-(4-(methylamino)cyclohexyl)-1H-indol-6-yl)thiophene-2-carboximidamide] | –
8 | 46.2 µM | 30.19 | 1.53 µM | N=C(Nc1ccc2c(C3=CN4CCC3CC4)c[nH]c2c1)c1cccs1 [Compound 111, N-(3-(1-azabicyclo[2.2.2]oct-2-en-3-yl)-1H-indol-6-yl)thiophene-2-carboximidamide] | –
9 | 11.4 µM | 15.83 | 0.72 µM | CCCN[C@H]1CC[C@H](c2c[nH]c3cc(NC(=N)c4cccs4)ccc32)CC1 [Compound 138, N-(3-((1r,4r)-4-(propylamino)cyclohexyl)-1H-indol-6-yl)thiophene-2-carboximidamide] | –
10 | 6.33 µM | – | – | CCN1CCCC1CNCCCn1ccc2cc(NC(=N)c3cccs3)ccc21 (centres unmarked) [Compound 44, N-(1-(3-((1-ethylpyrrolidin-2-yl)methylamino)propyl)-1H-indol-5-yl)thiophene-2-carboximidamide] | –
11 | 2.57 µM | 6.74 | 0.38 µM | N=C(Nc1ccc2c(ccn2-c2cccnc2)c1)c1cccs1 [Compound 74, N-(1-(pyridin-3-yl)-1H-indol-5-yl)thiophene-2-carboximidamide] | –
12 | 8.72 µM | 32.53 | 0.26 µM | N=C(Nc1ccc2c(ccn2CCCNC2CC2)c1)c1cccs1 [Compound 46, N-(1-(3-(cyclopropylamino)propyl)-1H-indol-5-yl)thiophene-2-carboximidamide] | –
13 | 12.4 µM | – | – | CN(C)CCCn1ccc2cc(NC(=N)c3cccs3)ccc21 [Compound 48, N-(1-(3-(dimethylamino)propyl)-1H-indol-5-yl)thiophene-2-carboximidamide] | –
14 | 3.15 µM | 8.67 | 0.36 µM | N=C(Nc1ccc2c(ccn2CCCNC23CC4CC(CC(C4)C2)C3)c1)c1cccs1 [Compound 42, N-(1-(3-adamantanaminopropyl)-1H-indol-5-yl)thiophene-2-carboximidamide] | –
15 | 6 µM | 9.09 | 0.66 µM | N=C(Nc1ccc2c(ccn2CCCN2CCOCC2)c1)c1cccs1 [Compound 40, N-(1-(3-morpholinopropyl)-1H-indol-5-yl)thiophene-2-carboximidamide] | –
16 | 3.08 µM | 5.54 | 0.55 µM | N=C(Nc1ccc2c(ccn2-c2ccc(N)nc2)c1)c1cccs1 [Compound 77, N-(1-(6-aminopyridin-3-yl)-1H-indol-5-yl)thiophene-2-carboximidamide] | –
17 | 19 µM | – | 0.41 µM | N=C(Nc1ccc2c(c1)cc(-c1ccc([N+](=O)[O-])cc1)n2CCN1CCCCC1)c1cccs1 [Compound 18, N-(2-(4-nitrophenyl)-1-(2-(piperidin-1-yl)ethyl)-1H-indol-5-yl)thiophene-2-carboximidamide] | –
18 | 3.18 µM | 3.88 | 0.82 µM | Cc1cc2cc(NC(=N)c3cccs3)ccc2n1CCN(C)C [Compound 25, N-(1-(2-(dimethylamino)ethyl)-2-methyl-1H-indol-5-yl)thiophene-2-carboximidamide] | –
19 | 21 µM | 46.4 | 0.45 µM | CNC1CC=C(c2c[nH]c3cc(NC(=N)c4cccs4)ccc23)CC1 (centres unmarked) [Compound 125, N-(3-(4-(methylamino)cyclohex-1-enyl)-1H-indol-6-yl)thiophene-2-carboximidamide] | –
20 | 3.7 µM | 21.3 | 0.17 µM | CN(C)CCn1ccc2cc(NC(=N)c3cccs3)ccc21 [Compound 93, N-(1-(2-(dimethylamino)ethyl)-1H-indol-5-yl)thiophene-2-carboximidamide] | –
21 | 13.9 µM | – | – | CN1CCCC1CCn1ccc2cc(NC(=N)c3ccco3)ccc21 (centres unmarked) [Compound 53, N-(1-(2-(1-methylpyrrolidin-2-yl)ethyl)-1H-indol-5-yl)furan-2-carboximidamide] | –
22 | 3.35 µM | 30.2 | 0.11 µM | CN1CCC[C@H]1Cn1ccc2cc(NC(=N)c3cccs3)ccc21 [Compound 104, (S)—N-(1-((1-methylpyrrolidin-2-yl)methyl)-1H-indol-5-yl)thiophene-2-carboximidamide] | –
23 | 9.2 µM | 53.80 | 0.17 µM | N=C(Nc1ccc2c(ccn2CCN2CCCCC2)c1)c1cccs1 [Compound 96, N-(1-(2-(piperidin-1-yl)ethyl)-1H-indol-5-yl)thiophene-2-carboximidamide] | –
24 | 2.87 µM | 20.2 | 0.14 µM | Cc1cc2cc(NC(=N)c3cccs3)ccc2n1CCC1CCCN1C (centres unmarked) [Compound 32, N-(2-methyl-1-(2-(1-methylpyrrolidin-2-yl)ethyl)-1H-indol-5-yl)thiophene-2-carboximidamide] | –

Row | Compound | IC50 [1] | Ratio e/n [3] | IC50 [3] | IC50 [2]
25 | CN1CCCC1CCn1c(Cc2ccccc2)cc2cc(NC(=N)c3cccs3)ccc21 (centres unmarked) [Compound 6, N-(2-benzyl-1-(2-(1-methylpyrrolidin-2-yl)ethyl)-1H-indol-5-yl)thiophene-2-carboximidamide] | 7.9 µM | 41.57 | 0.19 µM | –
26 | CN1CCCC(n2ccc3cc(NC(=N)c4ccco4)ccc32)CC1 (single isomer, unassigned) [(−)−55] | 28.5 µM | – | – | 46 µM
27 | CN1CCCC(n2ccc3cc(NC(=N)c4ccco4)ccc32)CC1 (centres unmarked) [Compound 54, N-(1-(1-methylazepan-4-yl)-1H-indol-5-yl)furan-2-carboximidamide] | 38.5 µM | – | – | 49 µM
28 | CN1CCCC1CCn1ccc2cc(NC(=N)c3cccs3)ccc21 (single isomer, unassigned) [(−)−57] | 1.92 µM | – | – | 1.7 µM
29 | CN1CCCC1CCn1ccc2cc(NC(=N)c3cccs3)ccc21 (single isomer, unassigned) [(+)−57] | 3.37 µM | – | – | 22 µM
30 | CN1CCCCC1CCn1ccc2cc(NC(=N)c3cccs3)ccc21 (centres unmarked) [Compound 62, N-(1-(2-(1-methylpiperidin-2-yl)ethyl)-1H-indol-5-yl)thiophene-2-carboximidamide] | 6.4 µM | 68.01 | 0.09 µM | –
31 | CN1CCCC(n2ccc3cc(NC(=N)c4ccco4)ccc32)CC1 (single isomer, unassigned) [(+)−55] | 24.5 µM | – | – | 10 µM
32 | CN1CCCC1CCn1ccc2cc(NC(=N)c3cccs3)ccc21 (centres unmarked) [Compound 56, N-(1-(2-(1-methylpyrrolidin-2-yl)ethyl)-1H-indol-5-yl)thiophene-2-carboximidamide] | 4.49 µM | – | – | –
